This is an account of results in ChEMBL document CHEMBL1142172, “Curing Mycobacterium ulcerans infection in mice with a combination of rifampin-streptomycin or rifampin-amikacin” (2007).

The subject of experiment [1] is Mycobacterium ulcerans. Kind of experiment: Antimycobacterial activity in Mycobacterium ulcerans Cu001 infected BALB/c mouse assessed as mean number of CFU per foot-pad at […], sc after 2 weeks. The format is functional.
Experiment [2] has as its system Mycobacterium ulcerans. Kind of experiment: Antimycobacterial activity in Mycobacterium ulcerans Cu001 infected BALB/c mouse assessed as mean number of CFU per foot-pad at 10 mg/kg, sc after 2 weeks. The format is functional. The conditions noted are these: route subcutaneous.

Take `NCC[C@H](O)C(=O)N[C@@H]1C[C@H](N)[C@@H](O[C@H]2O[C@H](CN)[C@@H](O)[C@H](O)[C@H]2O)[C@H](O)[C@H]1O[C@H]1O[C@H](CO)[C@@H](O)[C@H](N)[C@H]1O` [AMIKACIN]: in the experiment with Mycobacterium ulcerans [1], the Log10 cfu is listed as 3.92.
As for `CO[C@H]1/C=C/O[C@@]2(C)Oc3c(C)c(O)c4c(O)c(c(/C=N/N5CCN(C)CC5)c(O)c4c3C2=O)NC(=O)/C(C)=C\C=C\[C@H](C)[C@H](O)[C@@H](C)[C@@H](O)[C@@H](C)[C@H](OC(C)=O)[C@@H]1C` [RIFAMPIN], the Log10 cfu in the experiment on Mycobacterium ulcerans [2] is given as 4.13.
As for `CN[C@@H]1[C@H](O[C@H]2[C@H](O[C@H]3[C@H](O)[C@@H](O)[C@H](N=C(N)N)[C@@H](O)[C@@H]3N=C(N)N)O[C@@H](C)[C@]2(O)C=O)O[C@@H](CO)[C@H](O)[C@H]1O` [STREPTOMYCIN], the Log10 cfu in the experiment on Mycobacterium ulcerans [1] is reported as 4.13.
